Reference: patent US11872262B2, “Means and methods for treating bacterial infections” (VIB VZW, priority 2017, dated 2024)
Residues, ends and D or L forms follow the SMILES beside them. *: point of attachment. FITC = O=C1OC2(c3ccc(O)cc3Oc3cc(O)ccc32)c2ccc(NC(=S)*)cc21

Assays:
[1] = Biodistribution study in healthy animals; format: in vivo, mice; details: single dose of 10 mg/kg, IP or urinary tract
Experimental: FIG. 7: Fluorescence imaging of organs ex vivo 3 h after a single injection (10 mg/kg) of Colpeptin1.
Given these positive results, we then established the tolerance of the Swiss mice to the peptide by performing a dose escalation experiment. […] The parameters observed included body weight, food and water consumption, home cage activity and locomotion. […] Based on these observations, we tested the antibacterial efficacy of the colpeptin1 in a mouse bladder infection model. In this model, an inoculum of 50 μL of a 10^8 CFU/mL suspension of E. coli O157:H7 was delivered via the urethra to the bladder of healthy Swiss mice. 1 h post-infection, we administered a single injection of colpeptin1 at 10 mg/kg, either via the urethra (n=15) or intraperitoneally (n=15). 24 h after treatment, the animals were sacrificed and the bacterial titer in kidney, colon, bladder and ureter was determined by plating the macerated tissue (FIG. 2F-l).

E. coli O157 = format: cell-based, Escherichia coli; details: HPLC-grade purified peptides, E. coli O157
Experimental: The MICs of active peptides were determined via the Broth microdilution assay according to the EUCAST guideline, which were performed in 96-well polystyrene flat-bottom microtiter plates (BD Biosciences). Briefly, a single colony was inoculated into 5 mL LB medium and grown to the end-exponential growth phase in a shaking incubator at 37° C. Cultures were subsequently diluted to an OD600 of 0.002 ([…]) in fresh LB medium. 100 μL of LB medium with different concentration of peptides ranging from 100 μg/mL to 1 μg/mL were serially diluted to the sterile 96-well plate (at least 3 wells in each plate). Afterward, 100 μL of the diluted bacteria were pipetted into 96-well plates containing different concentration of peptides. In each plate, the grown bacteria with maximum concentration of carrier and medium were considered as positive and negative controls, respectively. Thereafter, 96-well plates was statically incubated overnight at 37° C. to allow bacterial growth. A multipurpose UV/VIS plate reader at OD590 nm, 1 s shaking measured the absorbance of the growth bacteria using a Perkin Elmer spectrophotometer (1420 Multilabel Counter Victor 3).

E. coli O157:H7 = format: cell-based, Escherichia coli; details: screening-stage peptides tested at 1, 6, 12 and 25 μg/mL
Summary of the method: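 Tandem-repeat aggregation-prone-region peptides from DMSO stocks were tested for growth inhibition of E. coli O157:H7 at 1, 6, 12 and 25 μg/mL.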

Compound | E. coli O157 (apparent MIC in screen) (E. coli O157:H7) | further results
CC(C)C[C@H](NC(=O)CNC(=O)[C@H](CCCNC(=N)N)NC(=O)[C@@H]1CCCN1C(=O)[C@H](CCCNC(=N)N)NC(=O)[C@H](CCCNC(=N)N)NC(=O)[C@@H](NC(=O)[C@H](CC(C)C)NC(=O)[C@H](C)NC(=O)[C@H](CC(C)C)NC(=O)CNC(=O)[C@H](CC(C)C)NC(=O)CNC(=O)[C@H](CCCNC(=N)N)NC(=S)Nc1ccc2c(c1)C(=O)OC21c2ccc(O)cc2Oc2cc(O)ccc21)C(C)C)C(=O)NCC(=O)N[C@@H](CC(C)C)C(=O)N[C@@H](C)C(=O)N[C@@H](CC(C)C)C(=O)N[C@H](C(=O)N[C@@H](CCCNC(=N)N)C(=O)N[C@@H](CCCNC(=N)N)C(=O)O)C(C)C [FITC-colpeptin1] ({FITC}-RGLGLALVRRPRGLGLALVRR-OH; N-terminus and C-terminus assumed) | – | clearance of the peptide [1]: total clearance of the peptide after 24 h; duration of distribution of fluorescent material after injection [1]: at least 3 h
CC(C)C[C@H](NC(=O)CNC(=O)[C@H](CCCNC(=N)N)NC(=O)[C@@H]1CCCN1C(=O)[C@H](CCCNC(=N)N)NC(=O)[C@H](CCCNC(=N)N)NC(=O)[C@@H]1CCCN1C(=O)[C@H](CC(C)C)NC(=O)[C@H](C)NC(=O)[C@@H]1CCCN1C(=O)CNC(=O)[C@H](CC(C)C)NC(=O)CNC(=O)[C@@H](N)CCCNC(=N)N)C(=O)NCC(=O)N1CCC[C@H]1C(=O)N[C@@H](C)C(=O)N[C@@H](CC(C)C)C(=O)N1CCC[C@H]1C(=O)N[C@@H](CCCNC(=N)N)C(=O)N[C@@H](CCCNC(=N)N)C(=O)O [P2 pro2] (H-RGLGPALPRRPRGLGPALPRR-OH) | – | MIC (E. coli O157): >100 µg/mL
CC(C)C[C@H](NC(=O)CNC(=O)[C@H](CCCNC(=N)N)NC(=O)[C@@H]1CCCN1C(=O)[C@H](CCCNC(=N)N)NC(=O)[C@H](CCCNC(=N)N)NC(=O)[C@H](C)NC(=O)[C@H](CCCNC(=N)N)NC(=O)[C@H](CC(C)C)NC(=O)[C@H](C)NC(=O)[C@H](CC(C)C)NC(=O)[C@H](CC(C)C)NC(=O)CNC(=O)[C@@H](N)CCCNC(=N)N)C(=O)N[C@@H](CC(C)C)C(=O)N[C@@H](C)C(=O)N[C@@H](CC(C)C)C(=O)N[C@@H](CC(C)C)C(=O)N[C@@H](C)C(=O)N[C@@H](CCCNC(=N)N)C(=O)N[C@@H](CCCNC(=N)N)C(=O)O [Peptide P114] (H-RGLLALRARRPRGLLALLARR-OH; N-terminus and C-terminus assumed) | 25 µg/mL | –
CC[C@H](C)[C@H](NC(=O)CNC(=O)[C@@H](NC(=O)[C@H](CC(C)C)NC(=O)[C@H](CCCNC(=N)N)NC(=O)[C@@H]1CCCN1C(=O)[C@H](CCCNC(=N)N)NC(=O)[C@H](CCCNC(=N)N)NC(=O)CNC(=O)[C@H](CC(C)C)NC(=O)[C@H](C)NC(=O)[C@@H](NC(=O)[C@H](CCCNC(=N)N)NC(=O)[C@@H](NC(=O)[C@H](CC(C)C)NC(=O)[C@@H](N)CCCNC(=N)N)[C@@H](C)CC)[C@@H](C)CC)[C@@H](C)CC)C(=O)N[C@@H](C)C(=O)N[C@@H](CC(C)C)C(=O)NCC(=O)N[C@@H](CCCNC(=N)N)C(=O)N[C@@H](CCCNC(=N)N)C(=O)O [Peptide P115] (H-RLIRIALGRRPRLIGIALGRR-OH; N-terminus and C-terminus assumed) | 25 µg/mL | –
CC(C)C[C@H](NC(=O)[C@H](C)NC(=O)[C@H](CCCNC(=N)N)NC(=O)[C@@H]1CCCN1C(=O)[C@H](CCCNC(=N)N)NC(=O)[C@H](CCCNC(=N)N)NC(=O)[C@H](CCCNC(=N)N)NC(=O)[C@@H](NC(=O)[C@H](C)NC(=O)[C@@H](NC(=O)[C@H](CC(C)C)NC(=O)[C@H](CC(C)C)NC(=O)[C@H](C)NC(=O)[C@@H](N)CCCNC(=N)N)[C@@H](C)O)C(C)C)C(=O)N[C@@H](CC(C)C)C(=O)N[C@H](C(=O)N[C@@H](C)C(=O)N[C@H](C(=O)N[C@@H](CC(C)C)C(=O)N[C@@H](CCCNC(=N)N)C(=O)N[C@@H](CCCNC(=N)N)C(=O)O)C(C)C)[C@@H](C)O [Peptide P116] (H-RALLTAVRRRPRALLTAVLRR-OH; N-terminus and C-terminus assumed) | 6 µg/mL | –
CC(C)C[C@H](NC(=O)[C@H](C)NC(=O)[C@@H](NC(=O)[C@H](CC(C)C)NC(=O)[C@H](CCC(N)=O)NC(=O)[C@H](CCCNC(=N)N)NC(=O)[C@@H]1CCCN1C(=O)[C@H](CCCNC(=N)N)NC(=O)[C@H](CCCNC(=N)N)NC(=O)[C@@H](NC(=O)[C@H](CCCNC(=N)N)NC(=O)[C@H](CC(C)C)NC(=O)[C@H](C)NC(=O)[C@@H](NC(=O)[C@H](CC(C)C)NC(=O)[C@H](CCC(N)=O)NC(=O)[C@@H](N)CCCNC(=N)N)C(C)C)C(C)C)C(C)C)C(=O)N[C@@H](CC(C)C)C(=O)N[C@H](C(=O)N[C@@H](CCCNC(=N)N)C(=O)N[C@@H](CCCNC(=N)N)C(=O)O)C(C)C [Peptide P117] (H-RQLVALRVRRPRQLVALLVRR-OH; N-terminus and C-terminus assumed) | 25 µg/mL | –
CC(C)C[C@H](NC(=O)[C@H](C)NC(=O)[C@H](CC(C)C)NC(=O)[C@@H](NC(=O)[C@H](C)NC(=O)[C@H](CO)NC(=O)[C@H](CCCNC(=N)N)NC(=O)[C@@H]1CCCN1C(=O)[C@H](CCCNC(=N)N)NC(=O)[C@H](CCCNC(=N)N)NC(=O)[C@H](CC(C)C)NC(=O)[C@H](CC(C)C)NC(=O)[C@H](C)NC(=O)[C@H](CCCNC(=N)N)NC(=O)[C@@H](NC(=O)[C@H](C)NC(=O)[C@H](CO)NC(=O)[C@@H](N)CCCNC(=N)N)C(C)C)C(C)C)C(=O)N[C@@H](CC(C)C)C(=O)N[C@@H](CCCNC(=N)N)C(=O)N[C@@H](CCCNC(=N)N)C(=O)O [Peptide P118] (H-RSAVRALLRRPRSAVLALLRR-OH; N-terminus and C-terminus assumed) | 25 µg/mL | –
CC[C@H](C)[C@H](NC(=O)[C@H](CC(C)C)NC(=O)[C@H](CC(C)C)NC(=O)[C@H](C)NC(=O)[C@H](CCCNC(=N)N)NC(=O)[C@@H]1CCCN1C(=O)[C@H](CCCNC(=N)N)NC(=O)[C@H](CCCNC(=N)N)NC(=O)[C@H](CC(C)C)NC(=O)[C@H](CC(C)C)NC(=O)[C@@H](NC(=O)[C@@H](NC(=O)[C@H](CCCNC(=N)N)NC(=O)[C@H](CC(C)C)NC(=O)[C@H](C)NC(=O)[C@@H](N)CCCNC(=N)N)[C@@H](C)CC)[C@@H](C)O)C(=O)N[C@H](C(=O)N[C@@H](CC(C)C)C(=O)N[C@@H](CC(C)C)C(=O)N[C@@H](CCCNC(=N)N)C(=O)N[C@@H](CCCNC(=N)N)C(=O)O)[C@@H](C)O [Peptide P123] (H-RALRITLLRRPRALLITLLRR-OH; N-terminus and C-terminus assumed) | 25 µg/mL | –
CC(C)C[C@H](NC(=O)CNC(=O)[C@H](CCCNC(=N)N)NC(=O)[C@@H]1CCCN1C(=O)[C@H](CCCNC(=N)N)NC(=O)[C@H](CCCNC(=N)N)NC(=O)[C@H](CCC(N)=O)NC(=O)[C@H](CC(C)C)NC(=O)[C@H](C)NC(=O)[C@H](CCCNC(=N)N)NC(=O)[C@H](CC(C)C)NC(=O)[C@H](CC(C)C)NC(=O)CNC(=O)[C@@H](N)CCCNC(=N)N)C(=O)N[C@@H](CC(C)C)C(=O)N[C@@H](CC(C)C)C(=O)N[C@@H](C)C(=O)N[C@@H](CC(C)C)C(=O)N[C@@H](CCC(N)=O)C(=O)N[C@@H](CCCNC(=N)N)C(=O)N[C@@H](CCCNC(=N)N)C(=O)O [Peptide P124] (H-RGLLRALQRRPRGLLLALQRR-OH; N-terminus and C-terminus assumed) | 12 µg/mL | –
CC[C@H](C)[C@H](NC(=O)[C@H](CCCNC(=N)N)NC(=O)[C@@H]1CCCN1C(=O)[C@H](CCCNC(=N)N)NC(=O)[C@H](CCCNC(=N)N)NC(=O)[C@H](CC(N)=O)NC(=O)[C@H](CC(C)C)NC(=O)[C@@H](NC(=O)[C@H](CCCNC(=N)N)NC(=O)[C@@H](NC(=O)[C@@H](NC(=O)[C@@H](NC(=O)[C@@H](N)CCCNC(=N)N)[C@@H](C)CC)C(C)C)[C@@H](C)O)[C@@H](C)O)C(=O)N[C@H](C(=O)N[C@H](C(=O)N[C@H](C(=O)N[C@H](C(=O)N[C@@H](CC(C)C)C(=O)N[C@@H](CC(N)=O)C(=O)N[C@@H](CCCNC(=N)N)C(=O)N[C@@H](CCCNC(=N)N)C(=O)O)[C@@H](C)O)C(C)C)[C@@H](C)O)C(C)C [Peptide P125] (H-RIVTRTLNRRPRIVTVTLNRR-OH; N-terminus and C-terminus assumed) | 25 µg/mL | –
